# Laboratory results published in PubChem BioAssay (NCI).
#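 1) Cells in 96-well plates. 2) Compound, 48 h, 5 concentrations. 3) Linear interpolation between surrounding doses. 4) Unreached endpoint = highest concentration. GI50 marks 50% less growth. TGI is the concentration that stops growth completely.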
# Columns and labels:
# Assay in all cases: growth of human tumour cells (NCI), 48 h
# A549 NSCLC = test system: A549 NSCLC
# HOP-62 NSCLC = test system: HOP-62 NSCLC
# K-562 leukemia = test system: K-562 leukemia
# MALME-3M melanoma = test system: MALME-3M melanoma
# NCI-H226 lung = test system: NCI-H226 lung
# RPMI-8226 leukemia = test system: RPMI-8226 leukemia
# SK-MEL-5 melanoma = test system: SK-MEL-5 melanoma
# U251 CNS = test system: U251 CNS
# UACC-257 melanoma = test system: UACC-257 melanoma
# COLO 205 colon = test system: COLO 205 colon
SMILES,GI50 (A549 NSCLC) [µM],TGI (A549 NSCLC) [µM],GI50 (HOP-62 NSCLC) [µM],TGI (HOP-62 NSCLC) [µM],GI50 (K-562 leukemia) [µM],TGI (K-562 leukemia) [µM],GI50 (MALME-3M melanoma) [µM],TGI (MALME-3M melanoma) [µM],GI50 (NCI-H226 lung) [µM],TGI (NCI-H226 lung) [µM],GI50 (RPMI-8226 leukemia) [µM],TGI (RPMI-8226 leukemia) [µM],GI50 (SK-MEL-5 melanoma) [µM],TGI (SK-MEL-5 melanoma) [µM],GI50 (U251 CNS) [µM],TGI (U251 CNS) [µM],GI50 (UACC-257 melanoma) [µM],TGI (UACC-257 melanoma) [µM],TGI (COLO 205 colon) [µM],GI50 (COLO 205 colon) [µM]
O=C(c1ccc2ccccc2c1)c1c(C(F)(F)F)n([O-])c2cc(Cl)c(Cl)cc2[n+]1=O,1.63,2.98,1.64,3.03,1.56,3.12,1.58,3,1.46,2.92,1.58,3.85,1.6,2.94,1.61,2.96,1.63,3.03,,
CSc1nc(SC)c2c(CN=[N+]=[N-])c(Br)n(Cc3ccccc3)c2n1,,> 100,,> 100,,,,> 100,,> 100,,> 100,,> 100,,> 100,,,> 100,
COC(=O)C(C#N)=C1c2ccccc2Oc2ccccc21,,> 100,,> 100,,> 100,,> 100,,> 100,,49.3,,> 100,,,,> 100,> 100,
CC(C)(C)OC(=O)n1cc(CNC(=S)Nc2ccccc2)c2ccccc21,10.6,33.1,17.2,38,8.73,70.1,,,14.3,30.7,3.27,16.4,4.51,16.6,4.18,16,10.9,30.5,23.4,11.3
COC(=O)C(c1[nH]nc2ccccc12)C(C(=O)OC)c1[nH]nc2ccccc12 (configuration not stated),,> 100,,> 100,,> 100,,> 100,,> 100,,50.4,,,,> 100,,> 100,,
COc1ccc(/C=C/C=C(/C#N)C(N)=S)cc1,33.1,> 100,29.8,94.9,29.9,> 100,26.9,99.4,55.7,> 100,,,18.3,36.4,28.5,> 100,20.4,41.4,50.7,20.9
O=C(c1cccs1)c1c(C(F)(F)F)n([O-])c2ccccc2[n+]1=O,1.36,3.78,0.376,1.24,1.64,8.77,0.85,2.53,1.05,3.12,0.613,10.5,0.686,1.33,1.07,2.79,,,9.89,1.66
CCOC(=O)C1(CC)CCCCC(=O)N1 (configuration not stated),,> 100,,> 100,,> 100,,> 100,,,,,,,,> 100,,,> 100,
O=C(CCN1CCN(c2cnc3ccccc3n2)CC1)c1csc2ccccc12,,,58.6,> 100,28.6,> 100,24.9,69.1,35.7,> 100,9.4,> 100,60.3,> 100,47.8,> 100,> 100,> 100,59,24.9
C[C@@H]1CC[C@H]2C(COCC3=C(C(F)(F)F)O[C@@H]4O[C@@]5(C)CC[C@H]6[C@H](C)CC[C@@H]3[C@@]46OO5)=C(C(F)(F)F)O[C@@H]3O[C@@]4(C)CC[C@@H]1[C@]32OO4,0.0126,> 100,,,< 0.01,> 100,< 0.01,> 100,0.047,> 100,< 0.01,> 100,0.0109,> 100,< 0.01,> 100,,,0.0835,< 0.01
O=C1NC2(CCCC2)C(=O)C12CCCC2,,> 100,,> 100,,> 100,,> 100,,,,> 100,,> 100,,> 100,,> 100,> 100,
Cc1ccccc1C(C#N)C(=O)C(=O)Nc1nc([N+](=O)[O-])cs1 (configuration not stated),,> 100,,> 100,,,,> 100,,> 100,,,,> 100,,> 100,,> 100,,
O=C(Nc1cccc(-n2ccc3c(NC(=O)c4ccccc4)nccc32)c1)c1cccc(C(F)(F)F)c1,0.043,2.61,0.0543,16.5,0.0391,> 38.2,0.0464,10.4,0.153,> 68.6,0.0327,1.17,0.0341,0.152,0.0402,6.16,0.0804,19.9,,
C1COCCN1.C1COCCN1.N.N.[Cl-].[Pt+2],> 100,> 100,,,,,> 100,> 100,> 100,> 100,,,> 100,> 100,> 100,> 100,,,> 100,> 100
O=[N+]([O-])[C@@H]1C2C=CC(C2)[C@H]1Cl (some centres not stated),,> 100,,> 100,,> 100,,> 100,,,,> 100,,> 100,,> 100,,> 100,> 100,
O=C(/C=C/c1ccc(Cl)cc1)c1ccc(Cl)cc1Cl,8.63,17.5,10.9,25.1,1.68,14.2,,,9.41,18.1,1.42,11,4.89,13.1,7.23,14.1,10.4,18.5,30.8,12.1
C=CC1=CSNN1,,> 100,,> 100,,> 100,,> 100,,,,> 100,,> 100,,> 100,,> 100,> 100,
CCOC(=O)CC1=Nc2ccccc2SC1,,> 100,,> 100,,,,> 100,,> 100,,,,> 100,,> 100,,> 100,> 100,
